Source: ChEMBL document CHEMBL5370598, “[3H]UR-JG102-A Radiolabeled Cyclic Peptide with High Affinity and Excellent Selectivity for the Neuropeptide Y Y4 Receptor” (J Med Chem, 2023)
Starred links: 1 amine or outer side, 2 acyl side, 3 side chain; linkers in the order of their positions; H or OH if unused. Positions of bridges follow the written chain, without caps; N, C: chain ends. Non-standard residues stand in square brackets, D forms with d. Residues, ends and D or L forms follow the SMILES beside them. *: point of attachment. Arg(Nω-CO) = N/C(=N\C(=O)[*:3])NCCC[C@H](N[*:1])C(=O)[*:2]; Ethylenediamine = C(CN[*:2])N[*:1]; Propionyl = CCC(=O)*

What was measured:
[1] = target: T1, Neuropeptide Y receptor type 4 (Homo sapiens, UniProt P50391); test: Agonist activity at human Y4R expressed in HEK293T cells by miniGsi assay; assay type: functional, cell-based
[2] = target: T1, Neuropeptide Y receptor type 4; test: Agonist activity at human Y4R expressed in CHO cells co-expressing Gqi5-mtAEQ by calcium2+ aequorin assay relative to control; assay type: functional, cell-based; conditions: filed as agonist
[3] = target: T1, Neuropeptide Y receptor type 4; test: Agonist activity at human Y4R expressed in HEK293T cells by miniGsi assay relative to control; assay type: functional, cell-based; conditions: filed as agonist
[4] = target: T1, Neuropeptide Y receptor type 4; test: Agonist activity at human Y4R expressed in CHO cells co-expressing Gqi5-mtAEQ by calcium2+ aequorin assay; assay type: functional, cell-based
[5] = target: T2, Neuropeptide Y receptor type 5 (Homo sapiens, UniProt Q15761); test: Displacement of [3H]propionyl-pNPY from human Y5R expressed in HEC-1B cells; assay type: cell-based, HEC-1B cell line
T2 sequence (Q15761 whole entry): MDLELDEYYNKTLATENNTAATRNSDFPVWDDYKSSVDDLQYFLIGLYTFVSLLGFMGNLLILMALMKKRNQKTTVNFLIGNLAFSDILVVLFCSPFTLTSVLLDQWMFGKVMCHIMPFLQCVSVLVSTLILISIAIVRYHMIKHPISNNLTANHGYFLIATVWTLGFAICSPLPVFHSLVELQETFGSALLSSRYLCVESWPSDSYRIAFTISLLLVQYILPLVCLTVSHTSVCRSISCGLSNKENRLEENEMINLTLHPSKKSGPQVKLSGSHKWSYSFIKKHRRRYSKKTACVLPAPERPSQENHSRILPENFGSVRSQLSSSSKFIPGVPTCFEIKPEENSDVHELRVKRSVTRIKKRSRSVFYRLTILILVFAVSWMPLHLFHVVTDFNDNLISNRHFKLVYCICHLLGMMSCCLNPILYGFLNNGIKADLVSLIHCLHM

[6] = target: T1, Neuropeptide Y receptor type 4; test: Displacement of [3H]UR-KK200 from human Y4R expressed in CHO cells co-expressing Gqi5-mtAEQ; assay type: cell-based
[7] = target: T3, Neuropeptide Y receptor type 1 (Homo sapiens, UniProt P25929); test: Displacement of [3H]UR-MK299 from human Y1R expressed in SK-N-MC cells; assay type: cell-based
T3 sequence (P25929 whole entry): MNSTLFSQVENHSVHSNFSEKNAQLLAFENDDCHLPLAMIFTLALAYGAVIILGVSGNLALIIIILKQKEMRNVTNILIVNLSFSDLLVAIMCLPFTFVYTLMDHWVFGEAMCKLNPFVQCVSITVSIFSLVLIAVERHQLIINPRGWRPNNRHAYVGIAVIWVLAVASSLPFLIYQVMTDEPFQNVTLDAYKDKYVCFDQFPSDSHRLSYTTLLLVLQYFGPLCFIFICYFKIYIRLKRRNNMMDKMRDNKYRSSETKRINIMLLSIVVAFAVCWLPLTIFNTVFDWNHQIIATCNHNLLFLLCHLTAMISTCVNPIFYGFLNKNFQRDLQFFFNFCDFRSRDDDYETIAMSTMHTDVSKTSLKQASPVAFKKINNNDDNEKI

[8] = target: T4, Neuropeptide Y receptor type 2 (Homo sapiens, UniProt P49146); test: Displacement of [3H]propionyl-pNPY from human Y2R expressed in CHO cells; assay type: cell-based
T4 sequence (P49146 whole entry): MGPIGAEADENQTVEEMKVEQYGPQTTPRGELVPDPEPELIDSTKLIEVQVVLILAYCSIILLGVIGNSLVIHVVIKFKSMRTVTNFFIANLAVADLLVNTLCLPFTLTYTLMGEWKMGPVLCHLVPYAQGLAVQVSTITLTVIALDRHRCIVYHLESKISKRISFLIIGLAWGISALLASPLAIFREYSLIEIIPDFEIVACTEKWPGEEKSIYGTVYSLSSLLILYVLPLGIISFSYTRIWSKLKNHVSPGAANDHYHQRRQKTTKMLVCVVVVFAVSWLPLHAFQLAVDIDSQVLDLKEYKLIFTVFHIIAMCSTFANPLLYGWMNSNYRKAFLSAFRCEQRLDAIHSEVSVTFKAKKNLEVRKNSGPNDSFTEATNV

[9] = target: T1, Neuropeptide Y receptor type 4; test: Agonist activity at human Y4R expressed in HEK293T cells incubated for 60 mins by cAMP CAMYEN assay relative to control; assay type: functional, cell-based; conditions: filed as agonist
[10] = target: T1, Neuropeptide Y receptor type 4; test: Agonist activity at human Y4R expressed in HEK293T cells incubated for 60 mins by cAMP CAMYEN assay; assay type: functional, cell-based

T1 sequence (P50391 whole entry): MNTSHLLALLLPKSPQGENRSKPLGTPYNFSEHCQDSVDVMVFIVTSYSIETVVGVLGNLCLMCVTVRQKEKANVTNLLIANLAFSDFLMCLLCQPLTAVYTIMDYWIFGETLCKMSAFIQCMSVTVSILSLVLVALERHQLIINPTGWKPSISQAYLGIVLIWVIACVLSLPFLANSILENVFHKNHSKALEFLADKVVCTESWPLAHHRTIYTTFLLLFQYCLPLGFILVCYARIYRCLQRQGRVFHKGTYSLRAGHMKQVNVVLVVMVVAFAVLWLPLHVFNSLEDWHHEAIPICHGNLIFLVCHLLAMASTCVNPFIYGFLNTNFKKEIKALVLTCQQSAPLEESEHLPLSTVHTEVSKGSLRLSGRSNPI

| SMILES | EC50 [1] | Emax [2] | Emax [3] | EC50 ([4]; read-out: EC50) | Ki ([5]; hec-1b cell line, read-out: Ki) | Ki ([5]; read-out: pKi (converted)) | Ki ([6]; read-out: Ki) | Ki ([6]; read-out: pKi (converted)) | Ki ([7]; read-out: pKi (converted)) | Ki ([7]; sk-n-mc, read-out: Ki) | Ki ([8]; read-out: Ki) | Ki ([8]; read-out: pKi (converted)) | Ki ([8]; cho, read-out: Ki) | Emax [9] | EC50 ([10]; read-out: EC50) | EC50 ([4]; read-out: pEC50 (converted)) | Ki ([7]; read-out: Ki) | EC50 ([10]; read-out: pEC50 (converted)) |
| --- | --- | --- | --- | --- | --- | --- | --- | --- | --- | --- | --- | --- | --- | --- | --- | --- | --- | --- |
| CC(C)C[C@H](NC(=O)[C@@H]1CCCN/C(N)=N/C(=O)NCCCCNC(=O)[C@H](NC(=O)CCCN)CC(=O)N[C@@H](CCCNC(=N)N)C(=O)N[C@@H](Cc2ccc(O)cc2)C(=O)N1)C(=O)N[C@@H](CCCNC(=N)N)C(=O)N[C@@H](Cc1ccc(O)cc1)C(N)=O | 2.5 nM | 69% | 62% | 18 nM | > 1000 nM | > 1000 nM | 0.093 nM | 0.0912 nM | > 1000 nM | > 1000 nM | > 948 nM | 912 nM |  |  |  |  |  |  |
| CC(C)C[C@H](NC(=O)[C@@H]1CCCN/C(N)=N/C(=O)NCCNC(=O)CC[C@H](N)C(=O)N[C@@H](CCCNC(=N)N)C(=O)N[C@@H](Cc2ccc(O)cc2)C(=O)N1)C(=O)N[C@@H](CCCNC(=N)N)C(=O)N[C@@H](Cc1ccc(O)cc1)C(N)=O (H-ERY[Arg(Nω-CO)]LRY-NH2; linker 1-4 via Ethylenediamine) | 10 nM | 65% | 67% | 60 nM | > 1000 nM | > 1000 nM | 0.17 nM |  | > 1000 nM | > 1000 nM |  | > 10000 nM | > 10000 nM |  |  |  |  |  |
| CCC(=O)N[C@H]1CCC(=O)NCCNC(=O)/N=C(\N)NCCC[C@@H](C(=O)N[C@@H](CC(C)C)C(=O)N[C@@H](CCCNC(=N)N)C(=O)N[C@@H](Cc2ccc(O)cc2)C(N)=O)NC(=O)[C@H](Cc2ccc(O)cc2)NC(=O)[C@H](CCCNC(=N)N)NC1=O (Propionyl-ERY[Arg(Nω-CO)]LRY-NH2; linker 1-4 via Ethylenediamine) | 19 nM | 66% | 70% | 71 nM | > 1000 nM | > 1000 nM | 0.26 nM |  | > 1000 nM | > 1000 nM | > 3000 nM | > 3160 nM |  | 86% | 0.41 nM |  |  |  |
| CC(C)C[C@H](NC(=O)[C@@H]1CCCN/C(N)=N/C(=O)NCCCCNC(=O)[C@@H](N)CC(=O)N[C@@H](CCCNC(=N)N)C(=O)N[C@@H](Cc2ccc(O)cc2)C(=O)N1)C(=O)N[C@@H](CCCNC(=N)N)C(=O)N[C@@H](Cc1ccc(O)cc1)C(N)=O | 1.1 nM | 85% | 59% | 5 nM | > 1000 nM | > 1000 nM | 0.026 nM | 0.0245 nM | > 1000 nM | > 1000 nM |  | > 10000 nM | > 10000 nM |  |  |  |  |  |
| CC(C)C[C@H](NC(=O)[C@@H]1CCCN/C(N)=N/C(=O)NCCCCNC(=O)C[C@H](N)C(=O)N[C@@H](CCCNC(=N)N)C(=O)N[C@@H](Cc2ccc(O)cc2)C(=O)N1)C(=O)N[C@@H](CCCNC(=N)N)C(=O)N[C@@H](Cc1ccc(O)cc1)C(N)=O | 4.7 nM | 70% | 55% | 19 nM | > 1000 nM | > 1000 nM | 0.33 nM |  | > 3160 nM |  |  | > 10000 nM | > 10000 nM |  |  | 13.2 nM | > 3000 nM |  |
| CCC(=O)N[C@H]1CC(=O)NCCCCNC(=O)/N=C(\N)NCCC[C@@H](C(=O)N[C@@H](CC(C)C)C(=O)N[C@@H](CCCNC(=N)N)C(=O)N[C@@H](Cc2ccc(O)cc2)C(N)=O)NC(=O)[C@H](Cc2ccc(O)cc2)NC(=O)[C@H](CCCNC(=N)N)NC1=O | 8.1 nM | 64% | 46% | 23 nM | > 1000 nM | > 1000 nM | 0.11 nM |  | > 1000 nM | > 1000 nM |  | > 10000 nM | > 10000 nM | 83% | 0.2 nM | 20 nM |  |  |
| CCC(=O)N[C@@H]1CC(=O)NCCCCNC(=O)/N=C(\N)NCCC[C@@H](C(=O)N[C@@H](CC(C)C)C(=O)N[C@@H](CCCNC(=N)N)C(=O)N[C@@H](Cc2ccc(O)cc2)C(N)=O)NC(=O)[C@H](Cc2ccc(O)cc2)NC(=O)[C@H](CCCNC(=N)N)NC1=O | 2.6 nM | 70% | 64% | 22 nM | > 1000 nM | > 1000 nM | 0.12 nM | 0.11 nM | > 1000 nM | > 1000 nM | > 3000 nM | > 3160 nM |  | 81% | 0.11 nM |  |  |  |
| CCC(=O)N[C@@H]1CC(=O)N[C@@H](CCCNC(=N)N)C(=O)N[C@@H](Cc2ccc(O)cc2)C(=O)N[C@H](C(=O)N[C@@H](CC(C)C)C(=O)N[C@@H](CCCNC(=N)N)C(=O)N[C@@H](Cc2ccc(O)cc2)C(N)=O)CCCN/C(N)=N/C(=O)NCCCCNC1=O | 1.6 nM | 74% | 51% | 9 nM | > 1000 nM | > 1000 nM | 0.066 nM |  | > 1000 nM | > 1000 nM |  | > 10000 nM | > 10000 nM | 85% | 0.063 nM | 6.31 nM |  | 0.0501 nM |
| CC(C)C[C@H](NC(=O)[C@@H]1CCCN/C(N)=N/C(=O)NCCCCNC(=O)[C@H](N)CC(=O)N[C@@H](CCCNC(=N)N)C(=O)N[C@@H](Cc2ccc(O)cc2)C(=O)N1)C(=O)N[C@@H](CCCNC(=N)N)C(=O)N[C@@H](Cc1ccc(O)cc1)C(N)=O | 1.1 nM | 79% | 56% | 8 nM | > 1000 nM | > 1000 nM | 0.041 nM |  | > 1000 nM | > 1000 nM |  | > 10000 nM | > 10000 nM |  |  |  |  |  |
| CC(C)C[C@H](NC(=O)[C@@H]1CCCN/C(N)=N/C(=O)NCCCCNC(=O)C[C@@H](N)C(=O)N[C@@H](CCCNC(=N)N)C(=O)N[C@@H](Cc2ccc(O)cc2)C(=O)N1)C(=O)N[C@@H](CCCNC(=N)N)C(=O)N[C@@H](Cc1ccc(O)cc1)C(N)=O | 0.89 nM | 63% | 68% | 11 nM | > 1000 nM | > 1000 nM | 0.031 nM |  | > 1000 nM | > 1000 nM |  | > 10000 nM | > 10000 nM |  |  |  |  |  |
